Earlier results on 4 compounds are cited in US20120258202A1, “Compositions and Methods for an Appetite Suppressant and a Nutrient Absorption Blocker with Treatment To Raise Metabolic Rate” (priority 2011, published 2012).

For series [1] the following is noted: after ORLISTAT was stopped.
The conditions of series [2]: laboratory animals.
The conditions of series [3]: people taking sibutramine; control 10.0%.

With `CNCCC(Oc1ccc(C(F)(F)F)cc1)c1ccccc1` (stereo not drawn) [fluoxetine, Fluoxetine], the “interruption of the treatment due to anxiety, insomnia, and nervousness (each)” value (in vivo) is 1-2%. In addition, the anorexia (prescribing information, placebo 3%) is recorded as 10%. Besides, the somnolence (prescribing information, placebo 5%) was 12%. Also, the anxiety (prescribing information, placebo 6%) is on record as 12%. Further, the nausea (prescribing information, placebo 9%) is 22%. Further, the insomnia (prescribing information, placebo 10%) is reported as 19%.

Turning to `CCCCCCCCCCC[C@@H](C[C@@H]1OC(=O)[C@H]1CCCCCC)OC(=O)[C@H](CC(C)C)NC=O` [orlistat, tetrahydrolipstatin], in series [1], the “weight regained after drug was stopped, of the weight lost” value was “up to 35%”.

On to `CN[C@H]1CC[C@@H](c2ccc(Cl)c(Cl)c2)c2ccccc21` [sertraline, Sertraline], for which the body weight result in series [2] is given as “resulted in weight loss”.

As to `CC(C)CC(N(C)C)C1(c2ccc(Cl)cc2)CCC1` (stereo not drawn) [sibutramine, Sibutramine], the cardiovascular events in series [3] was 11.4%.
